Tests used:
Vγ9/Vδ2 T-cells = assay: Activation of Vγ9/Vδ2 T-cells in PBMC (upregulation of CD69 and CD25); assay type: cell-based; settings: human PBMC from healthy donors, 18 h, n = 4-5 donors, Figure 2d and text
PBMC = assay: Specific cell death in PBMC cultures (ED50, viability dye); assay type: cell-based, human; settings: supplementary CSV
Experimental: Figure 2 Activation of human Vγ9/Vδ2^+ T cells by HMBP ProPAgens. (a) Human peripheral blood mononuclear cells (PBMC) were incubated with media or indicated concentrations of HMB-PP or zoledronate for 18 h. TCR Vγ9/Vδ2^+ T cells were then assessed for the upregulation of cell surface markers, CD69 and CD25. Data representative of n = 5. (b) As in (a), with PBMC incubated with indicated concentrations of HMBP ProPAgens. Data representative of n = 4. (c) As in (a) and (b), with data showing titrations of each of HMB-PP, zoledronate, and HMBP ProPAgens, alongside a medium control (M). Data from n = 4–5 donors. (d) EC50, ED50, and selectivity index (SI) values for each HMBP ProPAgens. Specific cell death, for ED50 values, was calculated after adjusting for nonspecific cell death in medium controls. (e) CD69 and CD25 activation in CD3^+ CD8^+ αβ T-cells for each compound.
I. T-cell isolation, culture and activation
PBMCs were isolated from heparinised venous blood from consented healthy donors (approved by the NRES Committee West Midlands ethical board; REC reference 14/WM/1254). Blood was layered over lymphoprep© (Stem Cell Technologies) and PBMC isolated according to manufacturers instructions. The cell culture medium used throughout was RPMI-1640 media supplemented with 2 mM L-glutamine, 25 mM HEPES, 1% sodium pyruvate, 50 μg/ml penicillin/streptomycin (Invitrogen) and 10% fetal calf serum (Sigma). For activation assays, 5 x 10^5 PBMC were cultured for 20 h in the presence of medium alone or the indicated concentrations of HMB-PP (Sigma), Zoledronate (Sigma), 5a, 5b, 5c and 5d (as described above). Cultured PBMC were labelled with Zombie© aqua viability dye (Biolegend) and cells were stained for surface antigens by antibodies directed against CD3 (UCHT1; […]
(§1) (IMMU360; 1:400); Beckman Coulter, and TCR Vδ2 (123R3; 1:200); Miltenyi. […] All cells were then labelled with Zombie© aqua viability dye and CFSE+ Zombie© aqua+ cells measured. All data were acquired on an LSR II (Beckton Dickinson) and data analysed with FlowJo V10.1 (TreeStar). Tabulated data were analysed in Graphpad PRISM 7

[1] = target: T1, carboxypeptidase cathepsin A (Homo sapiens, UniProt P10619); assay: In vitro cathepsin A mediated degradation monitored by 31P NMR and mass spectroscopy; assay type: in vitro ADME; settings: after 72 h
T1 sequence (P10619 29-480): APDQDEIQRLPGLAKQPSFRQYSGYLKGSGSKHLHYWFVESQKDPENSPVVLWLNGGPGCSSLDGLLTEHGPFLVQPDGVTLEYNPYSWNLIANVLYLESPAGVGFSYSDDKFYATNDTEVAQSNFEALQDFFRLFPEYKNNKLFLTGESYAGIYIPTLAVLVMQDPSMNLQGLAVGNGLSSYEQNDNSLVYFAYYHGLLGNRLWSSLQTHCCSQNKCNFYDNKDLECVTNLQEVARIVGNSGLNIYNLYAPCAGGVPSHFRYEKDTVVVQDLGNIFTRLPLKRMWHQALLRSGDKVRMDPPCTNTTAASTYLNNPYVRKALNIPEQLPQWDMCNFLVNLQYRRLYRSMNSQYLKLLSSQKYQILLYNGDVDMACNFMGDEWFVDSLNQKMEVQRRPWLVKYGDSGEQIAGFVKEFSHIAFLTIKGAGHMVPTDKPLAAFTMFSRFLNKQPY
Experimental: In order to get an insight into the metabolism of ProPAgens 6a–d, compound 6d was incubated with the carboxypeptidase cathepsin A in vitro and the reaction was monitored with ^31P NMR. […] This may explain literature reports pursuing the phosphonates of HMBP where the −O-P- bond was replaced by a −CH2-P- one and lack of reports on the native HMBP phosphate prodrugs.[19]

[2] = test system: T24 urinary bladder carcinoma cell line; assay: Specific lysis of pulsed T24 bladder carcinoma cells by expanded Vγ9/Vδ2 T cells; assay type: cell-based, human; settings: T24 pulsed 4 h with 10 nM ProPAgens or 10 μM zoledronate, cocultured 18 h with expanded Vγ9/Vδ2 T cells
Experimental: Next, we tested the potential for ProPAgens to sensitize the urinary bladder carcinoma cell line T24 for targeted killing by in vitro expanded Vγ9/Vδ2 T cells. Without sensitization, medium pulsed T24 cells were poorly targeted by increasing ratios of Vγ9/Vδ2 T cells, but upon pulsing for 4 h with zoledronate or ProPAgens 5a–d, T24 cells were specifically lysed (Figure 3a). […] In contrast, a 1000-fold lower concentration of each ProPAgen mediated a 2- to 4-fold increase in specific lysis of T24 over the same period (Figure 3b).
Figure 3 HMBP ProPAgens mediate the specific lysis of bladder cancer cells by Vγ9/Vδ2 T-cells. […] Specific killing of target cells was measured by amine-reactive dead cell marker staining. […] (b) As in (a) showing the mean ± SD specific killing of T24 cells at 1:10 target/effector ratio for each indicated treatment, n = 2: (∗) P < 0.05; (∗∗) P < 0.01; determined by one-way ANOVA. […]
as §1

SMILES | EC50, activation of Vγ9/Vδ2 T-cells (Vγ9/Vδ2 T-cells) | ED50 (PBMC) | other results
COC(=O)[C@H](C)NP(=O)(OC/C=C(\C)CO[Si](C)(C)C(C)(C)C)Oc1ccccc1 (stereo partly drawn) [5a, Methyl ((((E)-4-((tert-Butyldimethylsilyl)oxy)-3-methylbut-2-en-1-yl)oxy)(phenoxy)phosphoryl)-L-alaninate] | low nanomolar activation |  | 
C/C(=C\COP(=O)(N[C@@H](C)C(=O)OC(C)C)Oc1ccccc1)CO[Si](C)(C)C(C)(C)C (stereo partly drawn) [5c, Isopropyl ((((E)-4-((tert-Butyldimethylsilyl)oxy)-3-methylbut-2-en-1-yl)oxy)(phenoxy)phosphoryl)-L-alaninate] | low nanomolar activation |  | 
C/C(=C\COP(=O)(N[C@@H](C)C(=O)OC(C)(C)C)Oc1ccccc1)CO[Si](C)(C)C(C)(C)C (stereo partly drawn) [5d, tert-Butyl ((((E)-4-((tert-Butyldimethylsilyl)oxy)-3-methylbut-2-en-1-yl)oxy)(phenoxy)phosphoryl)-L-alaninate] | low nanomolar activation | >100 µM | 
C/C(=C\COP(=O)(N[C@@H](C)C(=O)OC(C)(C)C)Oc1ccccc1)CO (stereo partly drawn) [6d, tert-Butyl ((((E)-4-Hydroxy-3-methylbut-2-en-1-yl)oxy)(phenoxy)phosphoryl)-L-alaninate] |  |  | degradation product (major metabolite) after incubation with cathepsin A [1]: phosphate group masked with the aryl motif and the amino acid ester moiety
C/C(=C\COP(=O)(O)OP(=O)(O)O)CO [HMBPP, (E)-4-hydroxy-3-methyl-but-2-enyl pyrophosphate] |  | >100 µM | 
O.O=P(O)(O)C(O)(Cn1ccnc1)P(=O)(O)O [Zoledronate] |  | >100 µM | specific lysis/killing of T24 cells by Vγ9/Vδ2 T cells (in words) [2]: only a marginal increase

From PMC6493972, “Synthesis and Biological Evaluation of (E)-4-Hydroxy-3-methylbut-2-enyl Phosphate (HMBP) Aryloxy Triester Phosphoramidate Prodrugs as Activators of Vγ9/Vδ2 T-Cell Immune Responses” (Journal of Medicinal Chemistry, 2018)
